The text below walks through data of patent US9102669B2, “Substituted piperidinyl-pyridazinyl derivatives useful as SCD 1 inhibitors” (Janssen Pharmaceutica NV, priority 2011, dated 2015).

Where “and” joins values, the source holds several entries; their conditions need not be identical. Identical values can stand only once.

Experiment [1] has as its target SCD1 (Rattus norvegicus (Rat), UniProt P07308). Nature of the experiment: SCD1 enzymatic assay in rat liver microsomes (RLM). Format: biochemical. The note with it: rat liver microsomes; for % Inh.@ 1 μM / inhibition at 1 µM: 1 μM test compound; for inhibition at 1 µM: read-out: % Inh.@ 1 μM. On the procedure:
Step 1: Preparation of Rat Liver Microsome (RLM):
Sprague Dawley rats from Charles River (200-225 g) underwent 2-cycle of fast-re-feeding (24-hour fast followed by 24-hour feeding with fat-free high carbohydrate diet, Reseach Diet, D00042802). The livers were removed and homogenized 1:4 (w/v) with pre-chilled, homogenizing buffer (10 mM Tris-HCl, 0.25 M sucrose, 1 mM EDTA, pH 7.4, supplemented with protease inhibitor cocktail). The homogenate was spun at 12,000×g for 15 min at 4° C. The supernatant was then re-centrifuged at 100,000×g for 60 min at 4° C. The pellet was re-suspended in 2 ml pre-chilled […] potassium phosphate buffer, pH 7.2, 10 mM EDTA at a concentration of 20 mg/ml. The resulting rat liver microsome (RLM) preparation was stored at −80° C.
Step 2: SCD1 Enzymatic Assay in RLM:
The SCD1 enzymatic assay was done in a volume of 50 μL using 10 μg of RLM (prepared as described above) in a 96-well polypropylene plate (enzyme reaction buffer contains 0.1 M K-Phosphate Buffer, 10 mM ATP, 6 mM MgCl2. 1 mM CoA, 1 mM β-NADH, 1.6 mM L-glutathione, 20 μM Stearoyl-CoA). Stearoyl-[9,10-^3H]-CoA (ARC-0390, 1 mCi/mL, 60 Ci/mmol,) was added at a final concentration of 2 μCi/mL. Test compound was then added to the reaction mixture at the selected concentration. After incubation at room temperature for 2 hours, 5 μL 1 N HCl was added to stop the reaction, followed by addition of 25 μL of 10% charcoal. The reaction mixture was then transferred to 96-well Multiscreen plate (Millipore, Cat#MSFCN6B50). […] The measured cpm values were fitted with Sigmoidal dose-response curve fit with Graphpad Prism.

Experiment [2] concerns the target SCD1 (Homo sapiens (Human), UniProt O00767). Nature of the experiment: SCD1 13C-palmitic acid assay in A431 cells. It is filed as cell-based. The note with it: read-out: A431 cells 13C-PA IC50. The protocol: Human epithelial carcinoma A431 cells were seeded at 100,000 cells/well in complete growth medium (DMEM, Cellgro#10-013-CM, 4.5 g/L glucose, 10% FBS) in the presence of 0.05 mg/mL human insulin (Hannas Pharmaceutical Supply Co Inc, Humanlin 100 U/ml, 4 mg/ml) in 96-well tissue culture plate. 24 hr later, the cells were washed extensively with Assay Buffer (DMEM, Cellgro#10-013-CM, 4.5 g/L glucose, supplemented with 0.05 mg/mL Human Insulin and 0.1% Fatty Acid Free BSA). […] The cells were then returned to the tissue culture incubator (37° C. and 5% CO2) for 4 hrs. At the end of incubation, the cells were washed three times with 200 μL/well Hanks buffer (HBSS) and then stored at −20° C. until extraction.
For fatty acid extraction, after thawing out the plates, 40 μL of 1N KOH (containing 5 μM of internal standard 7,7,8,8-D4 palmitate) was added to each well and cell plates were incubated at 37° C. for 30 minutes. […] Acetonitrile (100 μL) was then added to extract fatty acids, followed by centrifugation at 3000 rpm for 10 minutes. 75 μL of extract was then transferred to a new glass vial in a 96-well cluster plate. 5 μL was injected for LC/MS analysis for detection of ^13C-palmitic acid and ^13C-palmitoleic acid. Formation of product ^13C-palmitoleic acid was determined as an index of SCD1 activity.
LC/MS analysis was performed as following. An Agilent 1100 Liquid Chromatographic System (Palo Alto, Calif.) consisting of a binary pump, a degasser and an autosampler was used. Separation of free fatty acids was performed on a Zorbax SB-C8 column (2.1×50 mm, particle size=3.5 μm). An isocratic elution was carried out with 10 mM triethylamine acetate in water: acetonitrile (3:7) at a flow rate of 0.3 mL/min. The column temperature was set at 30° C. and the sample injection volume was 5 μL. The LC run cycle was 4 min. A Micromass triple-quadrupole Quattro Micro mass […] (Waters, Beverly, Mass.) was interfaced with the LC system through a Z-spray electrospray ion source and was operated in the negative ion mode. Nitrogen was used as nebulizing gas, desolvation gas and cone curtain gas and argon was chosen as collision gas. The triple quadrupole MS source parameters were set as follows: capillary voltage, 3200V; cone voltage, 25V; exctractor 2V; source temperature, 120° C.; desolvation temperature, 300° C.; cone gas flow, 50 L/h; and desolvation gas flow, 700 L/h. […] MassLynx software version 4.0 was used for system control and data processing. The signal of U-^13C-palmitoleic acid was normalized to an internal standard.

Sequence of SCD1 (Rattus norvegicus (Rat), UniProt P07308) (P07308 whole entry): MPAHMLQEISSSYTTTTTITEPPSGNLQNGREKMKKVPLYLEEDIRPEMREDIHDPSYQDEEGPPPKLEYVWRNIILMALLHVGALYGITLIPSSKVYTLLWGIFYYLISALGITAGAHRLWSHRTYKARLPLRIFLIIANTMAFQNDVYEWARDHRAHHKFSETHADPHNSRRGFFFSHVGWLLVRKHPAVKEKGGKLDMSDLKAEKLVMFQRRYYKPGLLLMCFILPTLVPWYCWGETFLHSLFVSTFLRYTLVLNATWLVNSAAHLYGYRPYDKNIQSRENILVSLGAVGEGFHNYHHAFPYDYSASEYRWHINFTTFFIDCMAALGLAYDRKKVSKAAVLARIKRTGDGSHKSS
Sequence of SCD1 (Homo sapiens (Human), UniProt O00767) (O00767 whole entry): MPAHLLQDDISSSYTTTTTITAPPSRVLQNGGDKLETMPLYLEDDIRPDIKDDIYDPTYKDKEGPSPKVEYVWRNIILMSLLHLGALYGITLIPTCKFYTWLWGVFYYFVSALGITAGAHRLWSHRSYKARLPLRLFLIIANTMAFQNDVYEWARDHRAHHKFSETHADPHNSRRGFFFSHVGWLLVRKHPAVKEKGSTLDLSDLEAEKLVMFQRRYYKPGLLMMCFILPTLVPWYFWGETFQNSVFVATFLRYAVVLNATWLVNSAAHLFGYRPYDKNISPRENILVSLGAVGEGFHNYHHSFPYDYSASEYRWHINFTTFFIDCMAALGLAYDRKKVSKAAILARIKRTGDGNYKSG

Broadly, the IC50 is the point on the concentration scale where inhibition reaches its midpoint. Regarding `Cc1ccc(-c2ccc(N3CCC(c4noc5ccc(F)cc45)CC3)nn2)cn1` [compound 24, 5-fluoro-3-(1-(6-(6-methylpyridin-3-yl)pyridazin-3-yl)piperidin-4-yl)benzo[d]isoxazote], on SCD1 [1], the “% Inh.@ 1 μM” value is on record as 94%; the inhibition at 1 µM came out at 98%; the IC50 is 11 nM and 4 nM. On SCD1 [2], the IC50 is 9 nM and 6 nM.
Consider `Cc1cc(-c2ccc(N3CCC(c4noc5ccc(F)cc45)CC3)nn2)ccn1` [compound 25, 5-fluoro-3-(1-(6-(2-methylpyridin-4-yl)pyridazin-3-yl)piperidin-4-yl)benzo[d]isoxazole], for which, at SCD1 [1], the inhibition at 1 µM came to 62% and inhibition was half-maximal at 171 nM (IC50). The half-maximal inhibitory concentration (IC50) at SCD1 [2] worked out at 17 nM.
Consider `Fc1ccc2onc(C3CCN(c4ccc(-c5cn[nH]c5)nn4)CC3)c2c1` [compound 26, 3-(1-(6-(1H-pyrazol-4-yl)pyridazin-3-yl)piperidin-4-yl)-5-fluorobenzo[d]isoxazole], for which, at SCD1 [1], the inhibition at 1 µM came out at 86% and it took 111 nM to reach half-maximal inhibition (IC50). Moreover, the IC50 at SCD1 [2] came to 112 nM.
For `Cc1csc(-c2ccc(N3CCC(c4noc5ccc(F)cc45)CC3)nn2)c1` [compound 27, 5-fluoro-3-(1-(6-(4-methylthiophen-2-yl)pyridazin-3-yl)piperidin-4-yl)benzo[d]isoxazole], at SCD1 [1], the “% Inh.@ 1 μM” value came to 55%; the inhibition at 1 µM worked out at 75%; the IC50 is 114 nM and 122 nM. Also, the IC50 on SCD1 [2] is 4 nM and 3 nM.
As for `Cc1cnc(-c2ccc(N3CCC(c4noc5ccc(F)cc45)CC3)nn2)s1` [compound 28, 5-fluoro-3-(1-(6-(5-methylthiazol-2-yl)pyridazin-3-yl)piperidin-4-yl)benzo[d]isoxazole], the inhibition at 1 µM at SCD1 [1] was 94%. Further, the IC50 on SCD1 [1] was 9 nM; at SCD1 [2] it was 9 nM and 16 nM.
On to `COc1ncc(-c2ccc(N3CCC(c4noc5ccc(F)cc45)CC3)nn2)cn1` [compound 34, 5-fluoro-3-(1-(6-(2-methoxypyrimidin-5-yl)pyridazin-3-yl)piperidin-4-yl)benzo[d]isoxazole], for which, on SCD1 [1], the inhibition at 1 µM stood at 75% and the IC50 turned out to be 95 nM. In addition, the IC50 on SCD1 [2] was found to be 17 nM.
Take `OCc1ccc(-c2ccc(N3CCC(c4noc5ccc(F)cc45)CC3)nn2)cn1` [compound 35, (5-(6-(4-(5-fluorobenzo[d]isoxazol-3-yl)piperidin-1-yl)pyridazin-3-yl)pyridin-2-yl)methanol]: on SCD1 [1], the inhibition at 1 µM was 99% and the IC50 amounted to 8 nM. Moreover, at SCD1 [2], the concentration for half-maximal inhibition (IC50) stood at 2 nM.
On the same counts, the results for `COc1ncc(-c2ccc(N3CCC(N4CCc5ccc(F)cc54)CC3)nn2)cn1` [compound 38, 6-fluoro-1-(1-(6-(2-methoxypyrimidin-5-yl)pyridazin-3-yl)piperidin-4-yl)indoline] are 97%, 11 nM and 34 nM.
Consider `Cn1cc(-c2ccc(N3CCC(n4ncc5ccccc54)CC3)nn2)cn1` [compound 40, 1-(1-(6-(1-methyl-1H-pyrazol-4-yl)pyridazin-3-yl)piperidin-4-yl)-1H-indazole], for which, on SCD1 [1], the inhibition at 1 µM turned out to be 92% and the IC50 came out at 92 nM. Also, at SCD1 [2], the IC50 stood at 45 nM.
`CC(=O)Nc1ccc(-c2ccc(N3CCC(N4CCc5ccc(F)cc54)CC3)nn2)cn1` [compound 45, N-(5-(6-(4-(6-fluoroindolin-1-yl)piperidin-1-yl)pyridazin-3-yl)pyridin-2-yl)acetamide]: at SCD1 [1], the inhibition at 1 µM is 98% and half-maximal inhibition (IC50) was put at 15 nM. For the same molecule, the IC50 at SCD1 [2] was found to be 6 nM.
As to `CCOC(=O)Cn1cc(-c2ccc(N3CCC(N4CCc5ccc(F)cc54)CC3)nn2)cn1` [compound 50, ethyl 2-(4-(6-(4-(6-fluoroindolin-1-yl)piperidin-1-yl)pyridazin-3-yl)-1H-pyrazol-1-yl)acetate], the inhibition at 1 µM on SCD1 [1] came to 93%. Besides, the IC50 was 31 nM against SCD1 [1] and 44 nM at SCD1 [2].
For the molecule `Cn1cc(-c2ccc(N3CCC(n4ncc5c(Cl)cccc54)CC3)nn2)cn1` [compound 61, 4-chloro-1-(1-(6-(1-methyl-1H-pyrazol-4-yl)pyridazin-3-yl)piperidin-4-yl)-1H-indazole], at SCD1 [1], the inhibition at 1 µM worked out at 101% and the IC50 was 15 nM. For the same molecule, the IC50 on SCD1 [2] worked out at 17 nM.
Take `NC(=O)Cn1cc(-c2ccc(N3CCC(N4CCc5ccc(F)cc54)CC3)nn2)cn1` [compound 69, 2-(4-(6-(4-(6-fluoroindolin-1-yl)piperidin-1-yl)pyridazin-3-yl)-1H-pyrazol-1-yl)acetamide]: at SCD1 [1], the inhibition at 1 µM came out at 68% and it took 387 nM to reach half-maximal inhibition (IC50). At SCD1 [2], the IC50 was determined as 559 nM.
In the case of `Cn1cc(-c2ccc(N3CCC(n4ncc5c(F)cccc54)CC3)nn2)cn1` [compound 70, 4-fluoro-1-(1-(6-(1-methyl-1H-pyrazol-4-yl)pyridazin-3-yl)piperidin-4-yl)-1H-indazole], the inhibition at 1 µM at SCD1 [1] is 94%. Moreover, the IC50 on SCD1 [1] worked out at 68 nM; on SCD1 [2] it was 82 nM.
In the case of `Fc1ccc2c(c1)N(C1CCN(c3ccc(-c4cnn(CCN5CCOCC5)c4)nn3)CC1)CC2` [compound 71, 4-(2-(4-(6-(4-(6-fluoroindolin-1-yl)piperidin-1-yl)pyridazin-3-yl)-1H-pyrazol-1-yl)ethyl)morpholine], the inhibition at 1 µM on SCD1 [1] came to 71%. Moreover, the IC50 at SCD1 [1] is 275 nM; at SCD1 [2], > 1000 nM and 160 nM.
`Cn1cc(-c2ccc(N3CCC(n4ncc5cc(F)ccc54)CC3)nn2)cn1` [compound 73, 5-fluoro-1-(1-(6-(1-methyl-1H-pyrazol-4-yl)pyridazin-3-yl)piperidin-4-yl)-1H-indazole]: on SCD1 [1], the inhibition at 1 µM was 86% and the IC50 stood at 145 nM. For the same molecule, the IC50 on SCD1 [2] was 262 nM.
With `Cn1cc(-c2ccc(N3CCC(n4ncc5ccc(Cl)cc54)CC3)nn2)cn1` [compound 74, 6-chloro-1-(1-(6-(1-methyl-1H-pyrazol-4-yl)pyridazin-3-yl)piperidin-4-yl)-1H-indazole], at SCD1 [1], the inhibition at 1 µM stood at 96% and 16 nM corresponded to half-maximal inhibition (IC50). On SCD1 [2], the IC50 amounted to 22 nM.
`CCOCCn1cc(-c2ccc(N3CCC(c4noc5ccc(F)cc45)CC3)nn2)cn1` [compound 75, 3-(1-(6-(1-(2-ethoxyethyl)-1H-pyrazol-4-yl)pyridazin-3-yl)piperidin-4-yl)-5-fluorobenzo[d]isoxazole]: on SCD1 [1], the inhibition at 1 µM was 98%. Besides, the IC50 turned out to be 21 nM on SCD1 [1] and 81 nM on SCD1 [2].
In the same order, the values of `Fc1ccc2c(c1)N(C1CCN(c3ccc(-c4cn[nH]c4)nn3)CC1)CC2` [compound 77, 1-(1-(6-(1H-pyrazol-4-yl)pyridazin-3-yl)piperidin-4-yl)-6-fluoroindoline] are 95%, 21 nM and 20 nM.
In the same order, the values of `Cn1cc(-c2ccc(N3CCC(n4ncc5c(C(F)(F)F)cccc54)CC3)nn2)cn1` [compound 80, 1-(1-(6-(1-methyl-1H-pyrazol-4-yl)pyridazin-3-yl)piperidin-4-yl)-4-(trifluoromethyl)-1H-indazole] are 74%, 52 nM and 731 nM.
